Source: patent US20240316022A1 (TYRA BIOSCIENCES, INC., priority 2021, published 2024)

Columns and labels:
FGFR4 = molecular target: T1, FGFR4 (Homo sapiens, UniProt P22455); assay: Kinase binding assay (kinase-tagged T7 phage, qPCR), Kd; settings: read-out: FGFR4 (Kd nM)
T1 construct: made in house; host or cells: E. coli derived from BL21, infected with T7 phage

FGFR3 = molecular target: T2, FGFR3 (Homo sapiens, UniProt P22607); assay: as above; settings: read-out: FGFR3 (Kd nM)
T2 construct: made in house; host or cells: E. coli derived from BL21, infected with T7 phage

BCR-FGFR1 Ba/F3 = molecular target: T3, BCR-FGFR1 Ba/F3 (Homo sapiens, UniProt P11362); assay: Ba/F3 cell viability assay (CellTiter-Glo 2.0); format: cell-based; settings: Ba/F3 BCR-FGFR1 cells, 48 hours
T3 construct: host or cells: Ba/F3; the other entry of the earlier key: BCR (P11274, Breakpoint cluster region protein)
Excerpt: (§1) Experimental Purpose: Recombinant kinase fusions are transduced into parental Ba/F3, which becomes dependent upon this constitutive kinase activity for IL3-independent survival. Inhibition of kinase activity leads to cell death, which is monitored using CellTiter-Glo® 2.0 (Promega) which measures intracellular ATP concentration that in turn serves as a marker for viability. BCR-FGFR4 Ba/F3, BCR-FGFR1 Ba/F3 and FGFR3-BAIAP2L1 Ba/F3 were obtained from Advanced Cellular Dynamics (Seattle, WA)
(§2) Cell Viability Assay Procedure: Cell Titer-Glo® 2.0 Luminescent cell viability assay reagent was purchased from Promega (Madison, WI). BCR-FGFR4 Ba/F3, BCR-FGFR1 Ba/F3 and FGFR3-BAIAP2L1 Ba/F3 cells were cultured in RPMI1640 media supplemented with 10% fetal bovine serum. Cultures were maintained at 37° C. in a humidified atmosphere of 5% CO2 and 95% air.
(§3) Cells were plated in 96-well clear bottom/white plates (Corning #3903) at 10,000 cells/well in 100 μl of media, incubated overnight. The next day, test compound DMSO stock solutions were made at 10 mM and 2 μM final concentration. Compounds were then added to cells in a 9-dose, 10-fold dilution series starting at 30 μM with an HP 300e Digital Dispenser (each dose was applied in triplicate). DMSO was backfilled to each well up to 301 nL total volume of test compound+DMSO, and a total of 301 nL DMSO was added to a control/no test compound well in triplicate. The cells in cell culture plates were incubated with the compounds at 37° C. and 5% CO2 for 48 hours. Then 50 μl of Cell Titer Glo 2.0 reagent was added to each well of the cell culture plates. The contents were covered from light and mixed on an orbital shaker at room temperature for 10 min. Luminescence was recorded by a Synergy H1 Microplate Reader (Biotek, Winooski, VT). Cells were assessed as a percentage of DMSO only treated control cells. Curves were plotted and IC50 values were calculated using the GraphPad Prism 8 program based on a sigmoidal dose-response equation (4 parameter).

FGFR3-BAIAP2L1 Ba/F3 = molecular target: T4, FGFR3-BAIAP2L1 Ba/F3 (Homo sapiens, UniProt P22607); assay: Ba/F3 cell viability assay (CellTiter-Glo 2.0); format: cell-based; settings: Ba/F3 FGFR3-BAIAP2L1 cells, 48 hours
T4 construct: host or cells: Ba/F3; the other entry of the earlier key: BAIAP2L1 (Q9UHR4, BAR/IMD domain-containing adapter protein 2-like 1)
Excerpt: as §1, §2, §3

FGFR2 = molecular target: T5, FGFR2 (Homo sapiens, UniProt P21802); assay: Kinase binding assay (kinase-tagged T7 phage, qPCR), Kd; settings: read-out: FGFR2 (Kd nM)
T5 construct: made in house; host or cells: E. coli derived from BL21, infected with T7 phage

FGFR1 = molecular target: T6, FGFR1 (Homo sapiens, UniProt P11362); assay: as above; settings: read-out: FGFR1 (Kd nM)
T6 construct: made in house; host or cells: E. coli derived from BL21, infected with T7 phage
T6 sequence (P11362 22-822): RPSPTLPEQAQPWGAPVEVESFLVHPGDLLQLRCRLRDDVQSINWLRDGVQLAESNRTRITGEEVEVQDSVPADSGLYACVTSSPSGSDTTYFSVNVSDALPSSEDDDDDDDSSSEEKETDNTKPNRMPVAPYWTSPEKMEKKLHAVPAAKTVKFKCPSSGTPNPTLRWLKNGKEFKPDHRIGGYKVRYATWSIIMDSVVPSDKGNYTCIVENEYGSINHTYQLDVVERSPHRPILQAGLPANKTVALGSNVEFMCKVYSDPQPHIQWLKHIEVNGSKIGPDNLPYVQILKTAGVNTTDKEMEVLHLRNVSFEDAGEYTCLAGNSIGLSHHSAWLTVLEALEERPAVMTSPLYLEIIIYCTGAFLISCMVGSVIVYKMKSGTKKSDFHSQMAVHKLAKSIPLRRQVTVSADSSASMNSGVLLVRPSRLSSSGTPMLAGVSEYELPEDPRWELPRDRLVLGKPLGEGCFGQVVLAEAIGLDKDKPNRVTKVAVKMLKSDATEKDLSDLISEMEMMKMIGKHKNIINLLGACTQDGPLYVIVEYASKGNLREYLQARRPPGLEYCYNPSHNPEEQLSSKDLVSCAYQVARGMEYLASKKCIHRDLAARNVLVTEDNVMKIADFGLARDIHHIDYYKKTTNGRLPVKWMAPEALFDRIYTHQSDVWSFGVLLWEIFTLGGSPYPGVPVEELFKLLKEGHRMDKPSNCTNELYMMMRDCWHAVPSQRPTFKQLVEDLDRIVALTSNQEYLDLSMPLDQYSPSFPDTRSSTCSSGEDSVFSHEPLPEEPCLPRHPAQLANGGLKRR

T4 sequence (P22607 397-758 limits assumed): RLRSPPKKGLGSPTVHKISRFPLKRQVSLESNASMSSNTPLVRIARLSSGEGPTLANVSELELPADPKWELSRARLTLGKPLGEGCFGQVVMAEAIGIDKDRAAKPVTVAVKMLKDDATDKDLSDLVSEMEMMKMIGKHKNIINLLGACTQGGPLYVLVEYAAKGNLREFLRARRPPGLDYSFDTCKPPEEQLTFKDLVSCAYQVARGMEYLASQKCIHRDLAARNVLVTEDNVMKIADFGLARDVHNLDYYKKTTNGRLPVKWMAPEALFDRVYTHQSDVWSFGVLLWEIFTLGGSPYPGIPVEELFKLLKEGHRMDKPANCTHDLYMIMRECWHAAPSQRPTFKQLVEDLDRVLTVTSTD
T5 sequence (P21802 22-821): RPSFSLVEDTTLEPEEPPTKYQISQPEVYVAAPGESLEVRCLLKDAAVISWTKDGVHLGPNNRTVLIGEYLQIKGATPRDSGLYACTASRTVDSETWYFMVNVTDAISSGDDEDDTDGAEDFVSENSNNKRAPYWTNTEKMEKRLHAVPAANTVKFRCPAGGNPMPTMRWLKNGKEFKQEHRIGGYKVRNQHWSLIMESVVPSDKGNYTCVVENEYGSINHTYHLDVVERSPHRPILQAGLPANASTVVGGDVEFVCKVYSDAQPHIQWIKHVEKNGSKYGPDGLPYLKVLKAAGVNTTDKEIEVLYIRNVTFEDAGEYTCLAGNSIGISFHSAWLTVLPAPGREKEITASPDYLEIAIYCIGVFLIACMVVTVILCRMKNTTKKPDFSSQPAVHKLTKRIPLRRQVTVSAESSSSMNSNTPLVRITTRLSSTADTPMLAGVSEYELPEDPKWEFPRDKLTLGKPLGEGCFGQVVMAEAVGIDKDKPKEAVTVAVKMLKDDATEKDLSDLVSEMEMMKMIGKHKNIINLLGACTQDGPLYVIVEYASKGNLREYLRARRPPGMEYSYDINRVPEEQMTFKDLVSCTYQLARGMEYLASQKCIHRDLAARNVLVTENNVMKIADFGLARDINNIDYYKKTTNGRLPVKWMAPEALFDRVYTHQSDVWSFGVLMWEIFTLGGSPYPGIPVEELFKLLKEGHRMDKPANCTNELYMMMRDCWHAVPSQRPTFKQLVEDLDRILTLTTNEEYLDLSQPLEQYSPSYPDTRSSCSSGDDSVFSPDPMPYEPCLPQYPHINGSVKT
T1 sequence (P22455 22-802): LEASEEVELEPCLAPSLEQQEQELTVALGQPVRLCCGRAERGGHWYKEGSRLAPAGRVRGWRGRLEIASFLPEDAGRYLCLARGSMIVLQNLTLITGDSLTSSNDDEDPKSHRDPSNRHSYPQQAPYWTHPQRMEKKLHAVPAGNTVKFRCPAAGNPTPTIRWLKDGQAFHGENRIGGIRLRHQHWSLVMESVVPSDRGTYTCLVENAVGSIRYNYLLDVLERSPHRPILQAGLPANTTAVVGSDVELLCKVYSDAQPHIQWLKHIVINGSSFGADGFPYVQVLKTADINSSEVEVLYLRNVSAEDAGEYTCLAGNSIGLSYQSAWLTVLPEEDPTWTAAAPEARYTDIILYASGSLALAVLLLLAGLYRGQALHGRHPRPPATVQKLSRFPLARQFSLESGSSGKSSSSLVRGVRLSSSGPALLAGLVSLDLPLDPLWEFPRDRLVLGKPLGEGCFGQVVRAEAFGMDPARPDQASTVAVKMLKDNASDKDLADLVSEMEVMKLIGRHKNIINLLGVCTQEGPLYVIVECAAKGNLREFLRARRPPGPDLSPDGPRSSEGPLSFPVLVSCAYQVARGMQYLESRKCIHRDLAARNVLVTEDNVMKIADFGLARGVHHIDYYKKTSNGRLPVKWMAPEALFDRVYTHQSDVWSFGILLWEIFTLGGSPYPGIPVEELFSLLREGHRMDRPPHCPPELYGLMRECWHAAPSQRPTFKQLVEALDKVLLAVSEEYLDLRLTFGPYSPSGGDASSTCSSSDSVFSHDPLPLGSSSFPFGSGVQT
T3 sequence (P11362 478-767 limits assumed): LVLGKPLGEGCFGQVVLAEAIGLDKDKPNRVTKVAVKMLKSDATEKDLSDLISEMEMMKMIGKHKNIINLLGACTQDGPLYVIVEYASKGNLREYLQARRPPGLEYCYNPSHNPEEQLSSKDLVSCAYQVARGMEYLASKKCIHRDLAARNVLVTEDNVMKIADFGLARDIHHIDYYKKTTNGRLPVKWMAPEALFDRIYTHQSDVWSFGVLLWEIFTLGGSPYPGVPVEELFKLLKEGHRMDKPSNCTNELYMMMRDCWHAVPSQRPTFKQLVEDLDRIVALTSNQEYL
T2 sequence (P22607 23-806): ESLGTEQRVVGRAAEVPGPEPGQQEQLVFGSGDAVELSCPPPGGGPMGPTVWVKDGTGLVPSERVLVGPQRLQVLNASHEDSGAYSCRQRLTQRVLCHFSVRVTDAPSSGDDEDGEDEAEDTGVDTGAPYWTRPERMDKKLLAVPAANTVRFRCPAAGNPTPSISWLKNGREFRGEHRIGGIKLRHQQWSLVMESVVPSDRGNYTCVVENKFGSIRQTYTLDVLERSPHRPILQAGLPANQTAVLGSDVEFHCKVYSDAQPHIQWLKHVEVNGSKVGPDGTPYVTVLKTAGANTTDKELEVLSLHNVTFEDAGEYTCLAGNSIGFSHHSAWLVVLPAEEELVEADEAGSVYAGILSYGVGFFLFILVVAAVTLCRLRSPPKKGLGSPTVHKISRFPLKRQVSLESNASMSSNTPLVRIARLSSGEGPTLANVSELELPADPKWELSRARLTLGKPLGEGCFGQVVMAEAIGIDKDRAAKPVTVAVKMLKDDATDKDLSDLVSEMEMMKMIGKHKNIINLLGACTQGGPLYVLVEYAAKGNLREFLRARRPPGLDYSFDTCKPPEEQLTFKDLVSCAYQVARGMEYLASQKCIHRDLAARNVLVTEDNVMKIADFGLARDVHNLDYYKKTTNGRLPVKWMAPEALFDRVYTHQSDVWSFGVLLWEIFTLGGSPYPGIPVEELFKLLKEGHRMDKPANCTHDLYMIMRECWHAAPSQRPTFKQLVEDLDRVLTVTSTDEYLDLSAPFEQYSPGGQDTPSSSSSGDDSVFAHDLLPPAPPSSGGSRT

Structure (SMILES)	Kd (FGFR4)	Kd (FGFR3)	Kd (FGFR2)	Kd (FGFR1)	IC50 (BCR-FGFR1 Ba/F3)	IC50 (FGFR3-BAIAP2L1 Ba/F3)
CCN1CCC2(CC1)CC(=O)c1cc(-c3n[nH]c4ccc(O[C@H](C)c5c(Cl)cncc5Cl)cc34)ccc1O2 [Example 95, (R)-6-(5-(1-(3,5-Dichloropyridin-4-yl)ethoxy)-1H-indazol-3-yl)-1′-ethylspiro[chromane-2,4′-piperidin]-4-one]	0.1 to 100 nM	0.1 to 100 nM	0.1 to 100 nM	0.1 to 100 nM	100 to 250 nM	0.1 to 100 nM
Cc1cnnc(C)c1[C@@H](C)Oc1ccc2[nH]nc(-c3ccc4c(c3)COC3(CCN(C(C)C)CC3)O4)c2c1 [Example 112, (R)-6-(5-(1-(3,5-dimethylpyridazin-4-yl)ethoxy)-1H-indazol-3-yl)-1′-isopropyl-4H-spiro[benzo[d][1,3]dioxine-2,4′-piperidine]]	0.1 to 100 nM	0.1 to 100 nM	0.1 to 100 nM	0.1 to 100 nM	0.1 to 100 nM	0.1 to 100 nM
COc1cc(OC)cc(-c2n[nH]c3ccc(O[C@H](C)c4c(C)cnnc4C)cc23)c1 [Example 54, 3-(3,5-dimethoxyphenyl)-5-[(1R)-1-(3,5-dimethylpyridazin-4-yl)ethoxy]-1H-indazole]	0.1 to 100 nM	0.1 to 100 nM	250 to 1000 nM	250 to 1000 nM	–	–
C[C@@H](Oc1ccc2[nH]nc(-c3cc(C#N)cc(C4CC4)c3)c2c1)c1c(Cl)cncc1Cl [Example 109, (R)-3-cyclopropyl-5-(5-(1-(3,5-dichloropyridin-4-yl)ethoxy)-1H-indazol-3-yl)benzonitrile]	0.1 to 100 nM	250 to 1000 nM	> 1000 nM	> 1000 nM	–	–
C[C@@H](Oc1ccc2[nH]nc(-c3cnc4c(c3)N(CCN3CCOCC3)CCO4)c2c1)c1c(Cl)cncc1Cl [Example 50, 7-[5-[(1R)-1-(3,5-dichloro-4-pyridyl)ethoxy]-1H-indazol-3-yl]-1-(2-morpholino-ethyl)-2,3-dihydropyrido[2,3-b][1,4]oxazine]	0.1 to 100 nM	> 1000 nM	> 1000 nM	> 1000 nM	–	–
C[C@@H](Oc1ccc2[nH]nc(-c3cnc(OCC(C)(C)O)c(C#N)c3)c2c1)c1c(Cl)cncc1Cl [Example 122, 5-[5-[(1R)-1-(3,5-dichloro-4-pyridyl)ethoxy]-1H-indazol-3-yl]-2-(2-hydroxy-2-methyl-propoxy)pyridine-3-carbonitrile]	0.1 to 100 nM	0.1 to 100 nM	0.1 to 100 nM	0.1 to 100 nM	–	–
Cc1cnnc(C)c1[C@@H](C)Oc1ccc2[nH]nc(-c3cc(C#N)cc(C4CCCC4)c3)c2c1 [Example 86, 3-cyclopentyl-5-[5-[(1R)-1-(3,5-dimethylpyridazin-4-yl)ethoxy]-1H-indazol-3-yl]benzonitrile]	250 to 1000 nM	> 1000 nM	> 1000 nM	> 1000 nM	–	–
Cc1cnnc(C)c1[C@@H](C)Oc1ccc2[nH]nc(-c3cc(C#N)cc(C4CCOC4)c3)c2c1 (stereo partly drawn) [Example 90, 3-(5-((R)-1-(3,5-dimethylpyridazin-4-yl)ethoxy)-1H-indazol-3-yl)-5-(tetrahydrofuran-3-yl)benzonitrile]	0.1 to 100 nM	0.1 to 100 nM	0.1 to 100 nM	250 to 1000 nM	–	–
COc1cc(-c2n[nH]c3cc(OC)c(O[C@H](C)c4c(C)cnnc4C)cc23)cc(C#N)n1 [Example 98, (R)-4-(5-(1-(3,5-dimethylpyridazin-4-yl)ethoxy)-6-methoxy-1H-indazol-3-yl)-6-methoxypicolinonitrile]	0.1 to 100 nM	100 to 250 nM	100 to 250 nM	100 to 250 nM	–	–
Cc1cc(-c2n[nH]c3ccc(O[C@H](C)c4c(C)cnnc4C)cc23)cc(C#N)c1OC1CCN(C(C)C)CC1 [Example 110, (R)-5-(5-(1-(3,5-dimethylpyridazin-4-yl)ethoxy)-1H-indazol-3-yl)-2-((1-isopropylpiperidin-4-yl)oxy)-3-methylbenzonitrile]	0.1 to 100 nM	0.1 to 100 nM	0.1 to 100 nM	0.1 to 100 nM	–	–
CCOc1cc(OC)cc(-c2n[nH]c3ccc(O[C@H](C)c4c(C)cnnc4C)cc23)c1 [Example 52, 5-[(1R)-1-(3,5-dimethylpyridazin-4-yl)ethoxy]-3-(3-ethoxy-5-methoxy-phenyl)-1H-indazole]	0.1 to 100 nM	100 to 250 nM	250 to 1000 nM	> 1000 nM	–	–
COc1ncc(-c2n[nH]c3ccc(O[C@H](C)c4c(Cl)cncc4Cl)cc23)cc1NC(=O)CCN(C)C [Example 31, N-[5-[5-[(1R)-1-(3,5-dichloro-4-pyridyl)ethoxy]-1H-indazol-3-yl]-2-methoxy-3-pyridyl]-3-(dimethylamino)propanamido]	100 to 250 nM	100 to 250 nM	> 1000 nM	250 to 1000 nM	–	–

Continued, in another order:

Kd (FGFR4)	Kd (FGFR3)	Kd (FGFR2)	Kd (FGFR1)	Structure (SMILES)	IC50 (BCR-FGFR1 Ba/F3)	IC50 (FGFR3-BAIAP2L1 Ba/F3)
0.1 to 100 nM	0.1 to 100 nM	0.1 to 100 nM	250 to 1000 nM	Cc1cc(-c2n[nH]c3ccc(O[C@H](C)c4c(Cl)cnc(C)c4Cl)cc23)cnc1N[C@@H]1CCOC1 [Example 164, 5-[5-[(1R)-1-(3,5-dichloro-2-methyl-4-pyridyl)ethoxy]-1H-indazol-3-yl]-3-methyl-N-[(3R)-tetrahydrofuran-3-yl]pyridin-2-amine]	> 1000 nM	0.1 to 100 nM
0.1 to 100 nM	0.1 to 100 nM	0.1 to 100 nM	0.1 to 100 nM	Cc1cc(-c2n[nH]c3ccc(O[C@H](C)c4c(Cl)cncc4Cl)cc23)cnc1N[C@H]1CCOC1 [Example 153, 5-(5-((R)-1-(3,5-dichloropyridin-4-yl)ethoxy)-1H-indazol-3-yl)-3-methyl-N-((S)-tetrahydrofuran-3-yl)pyridin-2-amine]	250 to 1000 nM	0.1 to 100 nM
0.1 to 100 nM	0.1 to 100 nM	100 to 250 nM	100 to 250 nM	COc1c(F)cc(-c2n[nH]c3ccc(O[C@H](C)c4c(C)cnnc4C)cc23)cc1C#N [Example 82, 5-[5-[(1R)-1-(3,5-dimethylpyridazin-4-yl)ethoxy]-1H-indazol-3-yl]-3-fluoro-2-methoxy-benzonitrile]	–	100 to 250 nM
0.1 to 100 nM	0.1 to 100 nM	0.1 to 100 nM	0.1 to 100 nM	C[C@@H](Oc1ccc2[nH]nc(-c3ccnc(N)c3)c2c1)c1c(Cl)cncc1Cl [Example 29, 4-[5-[(1R)-1-(3,5-dichloro-4-pyridyl)ethoxy]-1H-indazol-3-yl]pyridin-2-amine]	–	–
0.1 to 100 nM	0.1 to 100 nM	0.1 to 100 nM	0.1 to 100 nM	COc1cc2[nH]nc(-c3ccc(N(C)C)nc3)c2cc1O[C@H](C)c1c(Cl)cnc(C)c1Cl [Example 149, 5-[5-[(1R)-1-(3,5-dichloro-2-methyl-4-pyridyl)ethoxy]-6-methoxy-1H-indazol-3-yl]-N,N-dimethyl-pyridin-2-amine]	–	–
0.1 to 100 nM	0.1 to 100 nM	0.1 to 100 nM	0.1 to 100 nM	C[C@@H](Oc1ccc2[nH]nc(-c3ccc(NC(=O)N(C)C)nc3)c2c1)c1c(Cl)cncc1Cl [Example 14, 3-[5-[5-[(1R)-1-(3,5-dichloro-4-pyridyl)ethoxy]-1H-indazol-3-yl]-2-pyridyl]-1,1-dimethyl-urea]	–	–
> 1000 nM	> 1000 nM	> 1000 nM	> 1000 nM	CCOc1cc(OC)cc(-c2n[nH]c3ccc(O[C@@H](C)c4c(C)cnnc4C)cc23)c1 [Example 59, 5-[(1S)-1-(3,5-dimethylpyridazin-4-yl)ethoxy]-3-(3-ethoxy-5-methoxy-phenyl)-1H-indazole]	–	–
